The subject of assay [1] is antibodies in sera from SARS patients (sera 1a, 1b, 2, 6, 37, 62, London, SARS-yellow, SARS-green). Format: binding, human. More on the design: Binding of serum 6 to linear peptides of protein X1 of SARS-CoV Urbani / Binding of serum 37 to linear peptides of protein X1 of SARS-CoV Urbani / Binding of serum 6 to looped/cyclic peptide (PEPSCAN-ELISA) / Binding of serum 37 to looped/cyclic peptide (PEPSCAN-ELISA) / Binding of serum 37 to looped/cyclic peptides of protein X1 of SARS-CoV Urbani / Binding of serum 6 to linear peptides of protein X2 / Binding of serum 37 to linear peptides of protein X2 / Binding of serum 37 to looped/cyclic peptides of protein X2 of SARS-CoV Urbani / Binding of serum 6 to linear peptides of protein M of SARS-CoV Urbani / Binding of serum 37 to linear peptides of protein M of SARS-CoV Urbani / Binding of serum 6 to looped/cyclic peptides of protein M of SARS-CoV Urbani / Binding of serum 37 to looped/cyclic peptides of protein M of SARS-CoV Urbani / Binding of serum 6 to linear peptides of protein X3 of SARS-CoV Urbani / Binding of serum 37 to linear peptides of protein X3 of SARS-CoV Urbani / Binding of serum 37 to looped/cyclic peptides of protein X3 of SARS-CoV Urbani / Binding of serum 6 to linear peptides of protein X4 of SARS-CoV Urbani / Binding of serum 37 to linear peptides of protein X4 of SARS-CoV Urbani / Binding of serum 37 to looped/cyclic peptides of protein X4 of SARS-CoV Urbani / Binding of serum 6 to linear peptides of protein X5 of SARS-CoV Urbani / Binding of serum 37 to linear peptides of protein X5 of SARS-CoV Urbani / Binding of serum 37 to looped/cyclic peptides of protein X5 of SARS-CoV Urbani / Binding of serum 6 to linear peptides of protein N of SARS-CoV Urbani / Binding of serum 37 to linear peptides of protein N of SARS-CoV Urbani / Binding of serum 6 to linear peptide (PEPSCAN-ELISA) / Binding of serum 1a to looped/cyclic peptides of protein N of SARS-CoV Urbani / Binding of serum 1b to looped/cyclic peptides of protein N of SARS-CoV Urbani / Binding of serum 2 to looped/cyclic peptides of protein N of SARS-CoV Urbani / Binding of serum 6 to looped/cyclic peptides of protein N of SARS-CoV Urbani / Binding of serum 37 to looped/cyclic peptides of protein N of SARS-CoV Urbani / Binding of serum 62 to looped/cyclic peptides of protein N of SARS-CoV Urbani / Binding of serum London to looped/cyclic peptides of protein N of SARS-CoV Urbani / Binding of serum SARS-green to looped/cyclic peptides of protein N of SARS-CoV Urbani: unit not given here.

Assay [2] deals with control sera (pooled serum of ten healthy LUMC hospital workers; commercial negative donor pooled serum from the Dutch bloodbank). Type of assay: binding, human. Also noted: Binding of Control serum LUMC to linear peptides / Binding of Control serum Blood-bank to linear peptides / Binding of Control serum LUMC to looped peptides / Binding of Control Serum Blood-Bank to Looped peptides / Binding of Control serum LUMC to linear peptides of the protein M of SARS-CoV Urbani / Binding of Control serum Blood-bank to linear peptides of the protein M of SARS-CoV Urbani / Binding of Control serum LUMC to looped peptides of the protein M of SARS-CoV Urbani / Binding of Control Serum Blood-Bank to Looped peptides of the protein M of SARS-CoV Urbani: unit not given here.

Assay [3] has as its system rabbit serum obtained by immunizing a rabbit with the SARS-CoV strain Frankfurt 1. Type of assay: binding. More on the design: Binding of a rabbit serum to linear peptides / Binding of a rabbit serum to looped peptides / Rabbit serum linear peptides / Rabbit serum looped peptides / Binding of a rabbit serum to linear peptides of protein N of SARS-CoV Urbani (Rabbit serum linear peptides) / Binding of a rabbit serum to looped/cyclic peptides of protein N of SARS-CoV Urbani (Rabbit serum looped peptides): unit not given here.

Regarding IVFTSCELYHYQECV, in assay [1], the “Binding of serum 1a to linear peptides of protein X4 of SARS-CoV Urbani” value was 0.8, the “Binding of serum 1a to looped/cyclic peptides of protein X4 of SARS-CoV Urbani” value came to 0.9, the “Binding of serum 1b to linear peptides of protein X4 of SARS-CoV Urbani” value was determined as 0.9 and the “Binding of serum 1b to looped/cyclic peptides of protein X4 of SARS-CoV Urbani” value is 0.8. In addition, in assay [1], the “Binding of serum 2 to linear peptides of protein X4 of SARS-CoV Urbani” value is 0.6, the “Binding of serum 2 to looped/cyclic peptides of protein X4 of SARS-CoV Urbani” value was determined as 0.8, the “Binding of serum 6 to linear peptides of protein X4 of SARS-CoV Urbani” value is 0.8 and the “Binding of serum 6 to looped/cyclic peptides of protein X4 of SARS-CoV Urbani” value is given as 0.6. Moreover, in assay [1], the “Binding of serum 37 to linear peptides of protein X4 of SARS-CoV Urbani” value turned out to be 1.0, the “Binding of serum 37 to looped/cyclic peptides of protein X4 of SARS-CoV Urbani” value is 1.0, the “Binding of serum 62 to linear peptides of protein X4 of SARS-CoV Urbani” value is reported as 1.0 and the “Binding of serum 62 to looped/cyclic peptides of protein X4 of SARS-CoV Urbani” value was found to be 0.8. Moreover, in assay [1], the “Binding of serum London to linear peptides of protein X4 of SARS-CoV Urbani” value amounted to 0.8, the “Binding of serum London to looped/cyclic peptides of protein X4 of SARS-CoV Urbani” value came to 0.3, the “Binding of serum SARS-green to linear peptides of protein X4 of SARS-CoV Urbani” value was 0.9 and the “Binding of serum SARS-green to looped/cyclic peptides of protein X4 of SARS-CoV Urbani” value stood at 0.8. In assay [1], the “Binding of serum SARS-yellow to linear peptides of protein X4 of SARS-CoV Urbani” value was 0.4 and the “Binding of serum SARS-yellow to looped/cyclic peptides of protein X4 of SARS-CoV Urbani” value amounted to 0.6. In addition, in assay [2], the “Binding of Control Serum Blood-Bank to Looped peptides” value came out at 0.8, the “Binding of Control serum Blood-bank to linear peptides” value is on record as 0.8, the “Binding of Control serum LUMC to linear peptides” value stood at 0.8 and the “Binding of Control serum LUMC to looped peptides” value is given as 0.9. Also, in assay [3], the “Rabbit serum linear peptides” value was 0.4 and the “Rabbit serum looped peptides” value is recorded as 0.4.
For the sequence IVTRPLMESELVIGA, in assay [1], the “Binding of serum 1a to linear peptides of protein M of SARS-CoV Urbani” value is given as 0.8, the “Binding of serum 1b to linear peptides of protein M of SARS-CoV Urbani” value is reported as 0.7, the “Binding of serum 2 to linear peptides of protein M of SARS-CoV Urbani” value turned out to be 0.6 and the “Binding of serum 6 to linear peptides of protein M of SARS-CoV Urbani” value came to 0.4. Further, in assay [1], the “Binding of serum 37 to linear peptides of protein M of SARS-CoV Urbani” value amounted to 0.6, the “Binding of serum 62 to linear peptides of protein M of SARS-CoV Urbani” value was 0.6, the “Binding of serum London to linear peptides of protein M of SARS-CoV Urbani” value is recorded as 0.3 and the “Binding of serum SARS-green to linear peptides of protein M of SARS-CoV Urbani” value is listed as 0.6. Moreover, in assay [1], the “Binding of serum SARS-yellow to linear peptides of protein M of SARS-CoV Urbani” value was 0.5; the “Recognition of the peptide by sera of SARS-CoV infected individuals, and form (linear, looped/cyclic) in which it is recognized” value was “recognized in looped/cyclic form”. For the same sequence, in assay [2], the “Binding of Control Serum Blood-Bank to Looped peptides of the protein M of SARS-CoV Urbani” value stood at 0.9, the “Binding of Control serum Blood-bank to linear peptides of the protein M of SARS-CoV Urbani” value is listed as 0.7, the “Binding of Control serum LUMC to linear peptides of the protein M of SARS-CoV Urbani” value was determined as 0.8 and the “Binding of Control serum LUMC to looped peptides of the protein M of SARS-CoV Urbani” value was 1.0. Moreover, in assay [3], the “Rabbit serum linear peptides” value is 0.1 and the “Rabbit serum looped peptides” value is listed as 0.4.
For IVVTEGDGISTPKLK, in assay [1], the “Binding of serum 1a to linear peptides of protein X1 of SARS-CoV Urbani” value worked out at 0.5, the “Binding of serum 1a to looped/cyclic peptides of protein X1 of SARS-CoV Urbani” value came to 0.3, the “Binding of serum 1b to linear peptides of protein X1 of SARS-CoV Urbani” value was determined as 0.5 and the “Binding of serum 1b to looped/cyclic peptides of protein X1 of SARS-CoV Urbani” value worked out at 0.2. In assay [1], the “Binding of serum 2 to linear peptides of protein X1 of SARS-CoV Urbani” value stood at 0.3, the “Binding of serum 2 to looped/cyclic peptides of protein X1 of SARS-CoV Urbani” value came out at 0.1, the “Binding of serum 6 to linear peptides of protein X1 of SARS-CoV Urbani” value amounted to 0.4 and the “Binding of serum 6 to looped/cyclic peptides of protein X1 of SARS-CoV Urbani” value was 0.1. In assay [1], the “Binding of serum 37 to linear peptides of protein X1 of SARS-CoV Urbani” value came out at 0.5, the “Binding of serum 37 to looped/cyclic peptides of protein X1 of SARS-CoV Urbani” value is 0.2, the “Binding of serum 62 to linear peptides of protein X1 of SARS-CoV Urbani” value came to 0.3 and the “Binding of serum 62 to looped/cyclic peptides of protein X1 of SARS-CoV Urbani” value came out at 0.3. In assay [1], the “Binding of serum London to linear peptides of protein X1 of SARS-CoV Urbani” value is 0.2, the “Binding of serum London to looped/cyclic peptides of protein X1 of SARS-CoV Urbani” value was determined as 0.1, the “Binding of serum SARS-green to linear peptides of protein X1 of SARS-CoV Urbani” value is 0.1 and the “Binding of serum SARS-green to looped/cyclic peptides of protein X1 of SARS-CoV Urbani” value turned out to be 0.0. In assay [1], the “Binding of serum SARS-yellow to linear peptides of protein X1 of SARS-CoV Urbani” value was found to be 0.1 and the “Binding of serum SARS-yellow to looped/cyclic peptides of protein X1 of SARS-CoV Urbani” value was found to be 0.1. Further, in assay [2], the “Binding of Control Serum Blood-Bank to Looped peptides” value is recorded as 0.3, the “Binding of Control serum Blood-bank to linear peptides” value is 0.3, the “Binding of Control serum LUMC to linear peptides” value came to 0.3 and the “Binding of Control serum LUMC to looped peptides” value amounted to 0.3. In assay [3], the “Binding of a rabbit serum to linear peptides” value is 0.1 and the “Binding of a rabbit serum to looped peptides” value worked out at 0.4.
As to IYFLQCINACRIIMR, in assay [1], the “Binding of serum 1a to linear peptides of protein X1 of SARS-CoV Urbani” value is on record as 0.7, the “Binding of serum 1a to looped/cyclic peptide (PEPSCAN-ELISA)” value came to 0.6, the “Binding of serum 1b to linear peptides of protein X1 of SARS-CoV Urbani” value is given as 0.6 and the “Binding of serum 1b to looped/cyclic peptide (PEPSCAN-ELISA)” value came out at 0.4. Moreover, in assay [1], the “Binding of serum 2 to linear peptides of protein X1 of SARS-CoV Urbani” value turned out to be 0.6, the “Binding of serum 2 to looped/cyclic peptide (PEPSCAN-ELISA)” value came to 0.8, the “Binding of serum 6 to linear peptides of protein X1 of SARS-CoV Urbani” value was 0.5 and the “Binding of serum 6 to looped/cyclic peptide (PEPSCAN-ELISA)” value is reported as 1.0. Besides, in assay [1], the “Binding of serum 37 to linear peptides of protein X1 of SARS-CoV Urbani” value stood at 0.7, the “Binding of serum 37 to looped/cyclic peptide (PEPSCAN-ELISA)” value is on record as 0.6, the “Binding of serum 62 to linear peptides of protein X1 of SARS-CoV Urbani” value was found to be 0.7 and the “Binding of serum 62 to looped/cyclic peptide (PEPSCAN-ELISA)” value came out at 0.7. Moreover, in assay [1], the “Binding of serum London to linear peptides of protein X1 of SARS-CoV Urbani” value was 0.3, the “Binding of serum London to looped/cyclic peptide (PEPSCAN-ELISA)” value is reported as 1.6, the “Binding of serum SARS-green to linear peptides of protein X1 of SARS-CoV Urbani” value is on record as 0.2 and the “Binding of serum SARS-green to looped/cyclic peptide (PEPSCAN-ELISA)” value stood at 0.2. Further, in assay [1], the “Binding of serum SARS-yellow to linear peptides of protein X1 of SARS-CoV Urbani” value is on record as 0.5 and the “Binding of serum SARS-yellow to looped/cyclic peptide (PEPSCAN-ELISA)” value turned out to be 0.6. Further, in assay [2], the “Binding of Control Serum Blood-Bank to Looped peptides” value is reported as 0.6, the “Binding of Control serum Blood-bank to linear peptides” value is recorded as 0.7, the “Binding of Control serum LUMC to linear peptides” value was 0.7 and the “Binding of Control serum LUMC to looped peptides” value amounted to 0.6. In addition, in assay [3], the “Binding of a rabbit serum to linear peptides” value is given as 0.5 and the “Binding of a rabbit serum to looped peptides” value was found to be 0.9.

These data come from US20070128217A1 (priority 2003, published 2007).
